Consider one molecule from patent US20200061092A1, “METHODS AND COMPOSITIONS FOR TREATING DISORDERS ASSOCIATED WITH MUSCLE WEAKNESS” (priority 2018, published 2020).

Test [1] deals with F-α-DG (functionally glycosylated α-DG). The experiment in a line: Immunohistochemical staining of F-α-DG with IIH6C4 antibody in muscles of ribitol-treated P448L mice. It is filed as in vivo, mouse. Here is the method: Ribitol was purchased from Sigma (A5502 Adonitol, ≥98%, Sigma, St. Louis) and dissolved in drinking water to the final concentration of 5% or 10%. […] mice aged at 4 weeks were treated with 5% ribitol drinking water for 1 month and […] mice aged at 7 weeks were treated with 5% ribitol drinking water for 3 months and 6 months. All the mice were randomly assigned to either treatment or control groups. And a minimum number of 4 mice were used for each group. No animal was excluded. […] female breeders were given 10% ribitol in drinking water during pregnancy, and pups continued to be treated with 10% ribitol in drinking water until they were euthanized at 19 weeks of age. Untreated age-matched […] and wild-type C57BL/6 mice were used as controls. The animals were terminated at the end of each treatment time point and tissues including heart, diaphragm, TA, quadriceps, liver, spleen and kidney were collected for analyses. […] For immunohistochemical detection of functionally glycosylated α-DG, […] of thickness cross sections of untreated and C57 control, as well as tissues from treated cohorts were included in each slide. Slides were first fixed in ice cold Ethanol:Acetic acid (1:1) for 1 min, blocked with 10% normal goat serum (NGS) in […]-buffer saline (TBS) for 30 min at room temperature, and incubated overnight at 4° C. with primary mouse monoclonal antibody IIH6C4 (EMD Millipore) (1:500) against α-DG. Negative controls received 10% normal goat serum in 1×TBS only. Sections were washed and incubated with secondary AlexaFLuor 488 goat anti-mouse IgM (Invitrogen) (1:500) at room temperature for 2 hr. […] Immunofluorescence was visualized using an Olympus BX51/BX52 fluorescence microscope (Opelco) and images were captured using the Olympus DP70 digital camera system (Opelco). Slides were examined in a blinded manner by the investigator.

Test [2] concerns ribitol, ribitol-5P and CDP-ribitol levels in heart and quadriceps. Nature of the test: LC/MS-MS quantification of ribitol, ribitol-5P and CDP-ribitol in muscle tissues of P448L mice. The conditions noted are these: 5% ribitol 1 month. It is filed as in vivo, mouse. As for the experimental part:
Ribitol was purchased from Sigma (A5502 Adonitol, ≥98%, Sigma, St. Louis) and dissolved in drinking water to the final concentration of 5% or 10%. […] mice aged at 4 weeks were treated with 5% ribitol drinking water for 1 month and […] mice aged at 7 weeks were treated with 5% ribitol drinking water for 3 months and 6 months. All the mice were randomly assigned to either treatment or control groups. And a minimum number of 4 mice were used for each group. No animal was excluded. […] female breeders were given 10% ribitol in drinking water during pregnancy, and pups continued to be treated with 10% ribitol in drinking water until they were euthanized at 19 weeks of age. Untreated age-matched […] and wild-type C57BL/6 mice were used as controls. The animals were terminated at the end of each treatment time point and tissues including heart, diaphragm, TA, quadriceps, liver, spleen and kidney were collected for analyses. Ribitol was purchased from Sigma (A5502). […] The supernatants were removed, transferred to individual wells of 96-well plate and analyzed by LC/MS-MS. […] The metabolites were analyzed using electrospray ionization mass spectrometry operated in positive ion mode, ESI+. Compounds concentration in tissue samples were determined based on standard curves prepared by serial dilutions (200-0.01 μM) of each of the compound in MeOH:ACN (1:1).

On to `OC[C@@H](O)[C@@H](O)[C@@H](O)CO` [ribitol], for which the “F-α-DG signal by IIH6C4 immunohistochemistry” value in test [1] (5% ribitol in drinking water, 1 month, 4-week-old P448L mice, heart, diaphragm, limb muscles) was “visibly increased F-α-DG”. Further, in test [1] (5% ribitol in drinking water, 3 and 6 months, from 7 weeks of age, all muscles), the “F-α-DG levels by IIH6C4 immunofluorescence” value is “clear increase in the levels of F-α-DG”. For the same molecule, the “Expression of F-α-DG by immunohistochemistry” value in test [1] (10% ribitol in drinking water from pregnancy to 19 weeks of age) was “detected in all skeletal muscles and in the cardiac muscle”. In addition, the “Levels of ribitol, ribitol-5P and CDP-ribitol vs untreated P448L” value in test [2] (heart and quadricep) is reported as “increased levels”. Besides, in test [2] (heart and quadriceps), the “CDP-ribitol levels, treated vs untreated” value is on record as “at least 4 fold”.
